Melting point data for 36 compounds are collected here from patent US7265120B2, “Pyrazine derivatives and pharmaceutical use thereof” (Astellas Pharma Inc., priority 2004, dated 2007).

Usually melting point stands for the temperature of the solid-liquid transition. For `COc1ccc(CNc2nc(-c3ccccc3Br)c(-c3ccc(=O)n(C(C)C)n3)nc2C#N)cc1` [Example 196, 5-(2-bromophenyl)-6-(1-isopropyl-6-oxo-1,6-dihydro-3-pyridazinyl)-3-[(4-methoxybenzyl)amino]-2-pyrazinecarbonitrile], the melting point lay in the range of 76 to 78 °C.

Compound `CC(=O)N1CCN(c2nc(-c3ccc(=O)n(C(C)C)n3)c(-c3ccccc3)nc2N)CC1` [Example 117, 6-[6-(4-acetyl-1-piperazinyl)-5-amino-3-phenyl-2-pyrazinyl]-2-isopropyl-3(2H)-pyridazinone] showed a melting point of 221 to 225 °C.

As to `CC(C)n1nc(-c2nc(C#CC3(O)CCCCC3)c(N)nc2-c2ccccc2)ccc1=O` [Example 73, 6-{5-amino-6-[(1-hydroxycyclohexyl)ethynyl]-3-phenyl-2-pyrazinyl}-2-isopropyl-3(2H)-pyridazinone], the melting point is 238 to 240 °C.

`CC(C)n1nc(-c2nc(C#N)c(C(N)=O)nc2-c2ccccc2)ccc1=O` [Example 23, 3-Cyano-5-(1-isopropyl-6-oxo-1,6-dihydro-3-pyridazinyl)-6-phenyl-2-pyrazinecarboxamide] came in with a melting point above 250 °C.

On to `CC(C)n1nc(-c2nc(N)c(C(N)=O)nc2-c2ccccc2)ccc1=O` [Example 29, 3-Amino-5-(1-isopropyl-6-oxo-1,6-dihydro-3-pyridazinyl)-6-phenyl-2-pyrazinecarboxamide], for which the melting point fell in the range of 217 to 220 °C.

As for `CC(C)n1nc(-c2nc(-c3ccoc3)c(N)nc2-c2ccccc2)ccc1=O` [Example 81, 6-[5-amino-6-(3-furyl)-3-phenyl-2-pyrazinyl]-2-isopropyl-3(2H)-pyridazinone], the melting point is 233 to 235 °C.

`COCOCC#Cc1nc(-c2ccc(=O)n(C(C)C)n2)c(-c2ccccc2)nc1N` [Example 71, 6-{5-amino-6-[3-(methoxymethoxy)-1-propyn-1-yl]-3-phenyl-2-pyrazinyl}-2-isopropyl-3(2H)-pyridazinone] came in with a melting point of 133 to 135 °C.

For the compound `CCCCOc1nc(-c2ccc(=O)n(C(C)C)n2)c(-c2ccccc2)nc1N` [Example 165, 6-(5-amino-6-butoxy-3-phenyl-2-pyrazinyl)-2-isopropyl-3(2H)-pyridazinone], the melting point was in the range of 130 to 131.5 °C.

Turning to `Cn1nc(-c2nc(C(N)=O)c(N)nc2-c2ccccc2)ccc1=O` [Example 18, 3-Amino-6-(1-methyl-6-oxo-1,6-dihydro-3-pyridazinyl)-5-phenyl-2-pyrazinecarboxamide], the melting point is above 250 °C.

For the compound `CC(C)n1nc(-c2nc(NCCN3CCCCC3)c(N)nc2-c2ccccc2)ccc1=O` [Example 103, 6-(5-amino-3-phenyl-6-{[2-(1-piperidinyl)ethyl]amino}-2-pyrazinyl)-2-isopropyl-3(2H)-pyridazinone], the melting point lay within 204.5 to 207 °C.

The compound `CC(C)n1nc(-c2ncc(O)nc2-c2ccccc2)ccc1=O` [Example 1, 6-(5-hydroxy-3-phenyl-2-pyrazinyl)-2-isopropyl-3(2H)-pyridazinone] displayed a melting point of 225 to 227 °C.

Compound `CC(C)n1nc(-c2nc(-n3cnc4ccccc43)c(N)nc2-c2ccccc2)ccc1=O` [Example 152, 6-[5-amino-6-(1H-benzimidazol-1-yl)-3-phenyl-2-pyrazinyl]-2-isopropyl-3(2H)-pyridazinone] showed a melting point above 250 °C.

As to `CSc1nc(-c2ccc(=O)n(C)n2)c(-c2ccccc2)nc1N` [Example 61, 6-[5-amino-6-(methylthio)-3-phenyl-2-pyrazinyl]-2-methyl-3(2H)-pyridazinone], the melting point lay within 204 to 205.5 °C.

`Cn1nc(-c2nc(OCc3ccccc3)c(N)nc2-c2ccccc2)ccc1=O` [Example 182, 6-[5-amino-6-(benzyloxy)-3-phenyl-2-pyrazinyl]-2-methyl-3(2H)-pyridazinone] registered a melting point of 185 to 187 °C.

As for `Cn1nc(-c2nc(-c3cccs3)c(N)nc2-c2ccccc2)ccc1=O` [Example 86, 6-[5-amino-3-phenyl-6-(2-thienyl)-2-pyrazinyl]-2-methyl-3(2H)-pyridazinone], the melting point is 177 °C (dec.).

`CC(C)n1nc(-c2nc(OCc3ccco3)c(N)nc2-c2ccccc2)ccc1=O` [Example 164, 6-[5-amino-6-(2-furylmethoxy)-3-phenyl-2-pyrazinyl]-2-isopropyl-3(2H)-pyridazinone] came in with a melting point of 172 to 174 °C.

As to `CC(C)n1nc(-c2nc(O)cnc2-c2ccccc2)ccc1=O` [Example 68, 6-(6-hydroxy-3-phenyl-2-pyrazinyl)-2-isopropyl-3(2H)-pyridazinone], the melting point lay in the range of 198 to 200 °C.

Compound `CCn1nc(-c2ncc(NCc3ccc(OC)cc3)nc2-c2ccccc2)ccc1=O` [Example 58, 2-ethyl-6-{5-[(4-methoxybenzyl)amino]-3-phenyl-2-pyrazinyl}-3(2H)-pyridazinone] showed a melting point of 148 to 150 °C.

With `CC(C)n1nc(-c2nc(C(N)=S)c(N)nc2-c2ccccc2)ccc1=O` [Example 26, 3-amino-6-(1-isopropyl-6-oxo-1,6-dihydro-3-pyridazinyl)-5-phenyl-2-pyrazinecarbothioamide], the melting point is above 250 °C.

As for `Cn1nc(-c2nc(NCCN3CCCCC3)c(N)nc2-c2ccccc2)ccc1=O` [Example 121, 6-(5-amino-3-phenyl-6-{[2-(1-piperidinyl)ethyl]amino}-2-pyrazinyl)-2-methyl-3(2H)-pyridazinone], the melting point is 155 to 157 °C.

Compound `CC(C)n1nc(-c2nc(OCCN3CCOCC3)c(N)nc2-c2ccccc2)ccc1=O` [Example 172, 6-{5-amino-6-[2-(4-morpholinyl)ethoxy]-3-phenyl-2-pyrazinyl}-2-isopropyl-3(2H)-pyridazinone] showed a melting point of 139 to 143 °C.

In turn, `COc1ccc(CNc2nc(-c3ccc(=O)n(C(C)C)n3)c(-c3ccccc3)nc2N)cc1` [Example 97, 6-{5-amino-6-[(4-methoxybenzyl)amino]-3-phenyl-2-pyrazinyl}-2-isopropyl-3(2H)-pyridazinone] registered a melting point of 188.5 to 191.5 °C.

`CC(C)n1nc(-c2nc(N3CCN(c4ccccn4)CC3)c(N)nc2-c2ccccc2)ccc1=O` [Example 142, 6-{5-amino-3-phenyl-6-[4-(2-pyridyl)-1-piperazinyl]-2-pyrazinyl}-2-isopropyl-3(2H)-pyridazinone] yielded a melting point of 163 to 165 °C.

Regarding `CC(C)n1nc(-c2nc(C(N)=O)c(N)nc2-c2ccccc2)ccc1=O` [Example 7, 3-amino-6-(1-isopropyl-6-oxo-1,6-dihydro-3-pyridazinyl)-5-phenyl-2-pyrazinecarboxamide], the melting point was 224 to 226 °C.

Compound `CC(C)n1nc(-c2nc(-c3ccncc3)c(N)nc2-c2ccccc2)ccc1=O` [Example 82, 6-[5-amino-3-phenyl-6-(4-pyridyl)-2-pyrazinyl]-2-isopropyl-3(2H)-pyridazinone] gave a melting point of 222 to 224 °C.

Compound `CC(C)n1nc(-c2nc(N)c(C#N)nc2-c2ccccc2)ccc1=O` [Example 21, 3-Amino-5-(1-isopropyl-6-oxo-1,6-dihydro-3-pyridazinyl)-6-phenyl-2-pyrazinecarbonitrile] yielded a melting point of 238 to 241 °C.

On to `CC(C)n1nc(-c2nc(C#N)c(NC=O)nc2-c2ccccc2)ccc1=O` [Example 25, [3-Cyano-5-(1-isopropyl-6-oxo-1,6-dihydro-3-pyridazinyl)-6-phenyl-2-pyrazinyl]formamide], for which the melting point lay within 198 to 200 °C.

Compound `CCOC(=O)C=Cc1nc(-c2ccc(=O)n(C(C)C)n2)c(-c2ccccc2)nc1N` [Example 95, ethyl 3-[3-amino-6-(1-isopropyl-6-oxo-1,6-dihydro-3-pyridazinyl)-5-phenyl-2-pyrazinyl]acrylate] yielded a melting point of 233 to 236 °C.

`COCCNc1nc(-c2ccc(=O)n(C)n2)c(-c2ccccc2)nc1N` [Example 120, 6-{5-amino-6-[(2-methoxyethyl)amino]-3-phenyl-2-pyrazinyl}-2-methyl-3(2H)-pyridazinone] had a melting point of 231 to 232.5 °C.

`COc1ccc(CNc2nc(-c3ccccc3)c(-c3ccc(=O)n(C(C)C)n3)nc2C#N)cc1` [Example 47, 6-(1-isopropyl-6-oxo-1,6-dihydro-3-pyridazinyl)-3-[(4-methoxybenzyl)amino]-5-phenyl-2-pyrazinecarbonitrile] displayed a melting point of 89 to 93 °C.

Compound `COC1CCN(c2nc(-c3ccc(=O)n(C(C)C)n3)c(-c3ccccc3)nc2N)CC1` [Example 110, 6-[5-amino-6-(4-methoxy-1-piperidinyl)-3-phenyl-2-pyrazinyl]-2-isopropyl-3(2H)-pyridazinone] registered a melting point of 179 to 181 °C.

In turn, `CC(C)n1nc(-c2nc(C(N)=O)c(N)nc2-c2ccccc2Br)ccc1=O` [Example 192, 3-amino-5-(2-bromophenyl)-6-(1-isopropyl-6-oxo-1,6-dihydro-3-pyridazinyl)-2-pyrazinecarboxamide] yielded a melting point of 240 to 243 °C.

Take `CC(C)n1nc(-c2nc(NCc3ccccc3)c(N)nc2-c2ccccc2)ccc1=O` [Example 96, 6-[5-amino-6-(benzylamino)-3-phenyl-2-pyrazinyl]-2-isopropyl-3(2H)-pyridazinone]: the melting point lay within 181 to 183.5 °C.

For the compound `CC(C)n1nc(-c2nc(N)cnc2-c2ccccc2)ccc1=O` [Example 50, 6-(6-amino-3-phenyl-2-pyrazinyl)-2-isopropyl-3(2H)-pyridazinone], the melting point lay within 214 to 217 °C.

For the compound `CC(C)n1nc(-c2nc(OC3CCCCC3)c(N)nc2-c2ccccc2)ccc1=O` [Example 161, 6-[5-amino-6-(cyclohexyloxy)-3-phenyl-2-pyrazinyl]-2-isopropyl-3(2H)-pyridazinone], the melting point lay within 161 to 163 °C.

In the case of `CC(C)n1nc(-c2nc(-c3ccccc3)c(N)nc2-c2ccccc2)ccc1=O` [Example 78, 6-(5-amino-3,6-diphenyl-2-pyrazinyl)-2-isopropyl-3(2H)-pyridazinone], the melting point was 225 to 226 °C.
